For 39 compounds, IC50 results are on record in the Kinase Knowledgebase extract (Sharma et al. 2016).

For one test, the target named is PIK3CB (Human) (UniProt P42338). The test can be described thus: Enzyme Assay.
Another test deals with PIK3CG (human) (UniProt P48736). In words: Enzyme Assay.
In the next test the target is PIK3CD (Human) (UniProt O00329). The test can be described thus: Cell-Based Assay. Conditions: raji.
Chain of PIK3CD (Human) (O00329 whole entry, looked up): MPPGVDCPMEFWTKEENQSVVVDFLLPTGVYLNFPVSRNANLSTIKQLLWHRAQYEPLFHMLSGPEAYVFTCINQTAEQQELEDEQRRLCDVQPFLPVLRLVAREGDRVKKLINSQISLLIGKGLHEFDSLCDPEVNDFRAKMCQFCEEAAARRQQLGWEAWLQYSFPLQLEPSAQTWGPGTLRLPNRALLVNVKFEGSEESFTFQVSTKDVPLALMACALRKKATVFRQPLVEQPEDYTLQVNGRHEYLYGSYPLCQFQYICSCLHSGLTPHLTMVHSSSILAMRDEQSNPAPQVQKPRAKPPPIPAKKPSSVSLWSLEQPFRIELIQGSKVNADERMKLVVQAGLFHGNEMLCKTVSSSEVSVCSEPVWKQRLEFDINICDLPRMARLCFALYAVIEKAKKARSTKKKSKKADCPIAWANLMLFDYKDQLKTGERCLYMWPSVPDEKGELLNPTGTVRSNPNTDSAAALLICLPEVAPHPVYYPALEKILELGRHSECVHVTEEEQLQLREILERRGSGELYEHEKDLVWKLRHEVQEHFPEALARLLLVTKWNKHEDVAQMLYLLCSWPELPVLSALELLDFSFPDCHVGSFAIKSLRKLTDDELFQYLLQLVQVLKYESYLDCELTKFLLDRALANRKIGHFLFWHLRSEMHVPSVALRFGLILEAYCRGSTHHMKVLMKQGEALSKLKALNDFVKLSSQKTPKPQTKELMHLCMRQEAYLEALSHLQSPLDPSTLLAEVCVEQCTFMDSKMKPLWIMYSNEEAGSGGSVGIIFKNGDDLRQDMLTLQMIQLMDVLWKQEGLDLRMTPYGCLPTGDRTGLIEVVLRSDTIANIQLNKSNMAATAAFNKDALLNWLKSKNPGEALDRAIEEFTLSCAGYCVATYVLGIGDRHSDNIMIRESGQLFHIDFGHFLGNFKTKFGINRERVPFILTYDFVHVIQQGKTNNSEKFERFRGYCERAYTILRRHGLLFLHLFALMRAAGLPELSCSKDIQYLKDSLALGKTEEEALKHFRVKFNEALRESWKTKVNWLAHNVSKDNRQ

Chain of PIK3CB (Human) (P42338 whole entry, looked up): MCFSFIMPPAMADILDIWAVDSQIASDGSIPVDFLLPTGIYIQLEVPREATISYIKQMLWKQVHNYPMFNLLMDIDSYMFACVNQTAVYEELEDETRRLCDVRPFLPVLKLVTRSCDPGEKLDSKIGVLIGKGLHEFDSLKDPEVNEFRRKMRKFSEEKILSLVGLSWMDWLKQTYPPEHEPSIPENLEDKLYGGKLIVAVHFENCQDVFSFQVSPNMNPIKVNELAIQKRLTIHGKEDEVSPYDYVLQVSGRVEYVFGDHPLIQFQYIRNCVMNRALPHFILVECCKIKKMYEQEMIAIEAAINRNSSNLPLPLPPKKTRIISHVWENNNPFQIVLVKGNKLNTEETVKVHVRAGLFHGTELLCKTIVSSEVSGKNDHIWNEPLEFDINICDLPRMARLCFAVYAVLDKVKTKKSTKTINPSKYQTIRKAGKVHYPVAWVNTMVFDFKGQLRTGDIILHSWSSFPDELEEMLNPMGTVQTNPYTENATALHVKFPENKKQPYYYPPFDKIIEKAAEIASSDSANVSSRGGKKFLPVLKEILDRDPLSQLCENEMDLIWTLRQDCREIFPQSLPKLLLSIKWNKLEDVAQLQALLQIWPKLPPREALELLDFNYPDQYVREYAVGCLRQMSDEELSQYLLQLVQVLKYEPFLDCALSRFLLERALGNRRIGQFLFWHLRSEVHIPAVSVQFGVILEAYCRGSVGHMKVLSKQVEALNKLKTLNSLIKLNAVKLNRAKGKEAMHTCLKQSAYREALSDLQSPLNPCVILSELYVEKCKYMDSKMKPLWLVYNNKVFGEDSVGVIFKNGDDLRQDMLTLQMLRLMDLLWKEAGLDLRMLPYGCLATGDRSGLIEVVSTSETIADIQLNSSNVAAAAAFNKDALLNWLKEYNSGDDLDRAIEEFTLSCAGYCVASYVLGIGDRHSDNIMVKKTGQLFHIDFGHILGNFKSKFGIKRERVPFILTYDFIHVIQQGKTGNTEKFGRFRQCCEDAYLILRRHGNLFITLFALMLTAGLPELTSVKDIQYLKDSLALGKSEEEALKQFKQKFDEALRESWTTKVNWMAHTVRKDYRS
Chain of PIK3CG (human) (P48736 whole entry, looked up): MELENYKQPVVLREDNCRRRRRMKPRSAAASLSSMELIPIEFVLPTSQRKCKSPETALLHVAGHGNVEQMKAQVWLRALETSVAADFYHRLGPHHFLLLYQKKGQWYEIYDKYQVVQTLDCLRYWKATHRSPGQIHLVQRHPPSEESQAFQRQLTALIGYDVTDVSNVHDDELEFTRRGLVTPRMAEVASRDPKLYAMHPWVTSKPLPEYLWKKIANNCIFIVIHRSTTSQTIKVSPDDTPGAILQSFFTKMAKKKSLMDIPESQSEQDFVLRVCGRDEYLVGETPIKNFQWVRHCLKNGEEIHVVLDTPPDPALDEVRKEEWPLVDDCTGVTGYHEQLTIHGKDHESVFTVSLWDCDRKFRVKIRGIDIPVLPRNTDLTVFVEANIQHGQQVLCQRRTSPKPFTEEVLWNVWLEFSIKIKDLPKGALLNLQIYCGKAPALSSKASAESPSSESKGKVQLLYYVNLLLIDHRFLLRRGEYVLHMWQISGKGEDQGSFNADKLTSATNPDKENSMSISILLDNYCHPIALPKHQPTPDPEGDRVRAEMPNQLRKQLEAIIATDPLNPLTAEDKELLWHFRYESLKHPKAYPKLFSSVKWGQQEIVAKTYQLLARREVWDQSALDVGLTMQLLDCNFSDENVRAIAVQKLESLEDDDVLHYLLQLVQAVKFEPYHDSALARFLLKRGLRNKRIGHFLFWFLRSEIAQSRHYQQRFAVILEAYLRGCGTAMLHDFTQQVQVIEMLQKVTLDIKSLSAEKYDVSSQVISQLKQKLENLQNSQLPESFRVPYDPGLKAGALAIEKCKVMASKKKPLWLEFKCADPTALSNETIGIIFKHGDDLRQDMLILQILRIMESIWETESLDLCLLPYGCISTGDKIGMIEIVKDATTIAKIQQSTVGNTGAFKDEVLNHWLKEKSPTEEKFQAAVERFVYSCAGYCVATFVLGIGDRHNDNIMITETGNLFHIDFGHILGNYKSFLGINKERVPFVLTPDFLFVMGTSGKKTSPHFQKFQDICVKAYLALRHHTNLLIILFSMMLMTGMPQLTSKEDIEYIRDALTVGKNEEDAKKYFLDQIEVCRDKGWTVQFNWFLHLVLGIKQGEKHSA

As to `C[C@H](NC(=O)c1c(N)nn2cccnc12)c1cc2cccc(-c3ccncc3)c2c(=O)n1-c1ccccc1`, the IC50 against PIK3CB (Human) is not below 10000 nM; on PIK3CG (human) it was 100 to 1000 nM; on PIK3CD (Human), less than 100 nM.
In the case of `C[C@H](NC(=O)c1cnc2cccnn12)c1cc2cccc(Cl)c2c(=O)n1-c1ccc(F)cc1`, the IC50 at PIK3CD (Human) is less than 100 nM.
Regarding `CC(C)NS(=O)(=O)c1cccc(-c2cnc(N)c(C(=O)N[C@@H](C)c3cc4cccc(Cl)c4c(=O)n3-c3ccccc3)n2)c1`, the figures for the IC50 against PIK3CB (Human), against PIK3CG (human) and at PIK3CD (Human) were 100 to 1000 nM, 100 to 1000 nM and less than 100 nM, respectively.
In the case of `C[C@H](NC(=O)c1c(N)nn2cccnc12)c1cc2cccc(-c3cccs3)c2c(=O)n1-c1ccccc1`, the IC50 at PIK3CG (human) and against PIK3CD (Human) was 100 to 1000 nM throughout.
Take `CC(C)Oc1ccc(-c2cnc(N)c(C(=O)N[C@@H](C)c3cc4cccc(Cl)c4c(=O)n3-c3ccccc3)n2)cc1F`: the IC50 against PIK3CB (Human) is not below 10000 nM; against PIK3CG (human), 100 to 1000 nM.
For the compound `COc1cc(-c2cccc3cc([C@H](C)NC(=O)c4c(N)nn5ccc(C)nc45)n(-c4ccccc4)c(=O)c23)ccn1`, the concentration for half-maximal inhibition (IC50) was not below 10000 nM against PIK3CB (Human), 100 to 1000 nM at PIK3CG (human) and less than 100 nM on PIK3CD (Human).
For `C[C@H](NC(=O)c1c(N)nn2cccnc12)c1cc2cccc(Cl)c2c(=O)n1-c1ccc(F)c(F)c1`, the figures for the IC50 against PIK3CG (human) and at PIK3CD (Human) were less than 100 nM and 100 to 1000 nM, respectively.
The corresponding values for `C[C@H](NC(=O)c1c(N)nn2cccnc12)c1cc2cccc(C#CCNC(=O)C3CCCCC3)c2c(=O)n1-c1ccccc1` are 100 to 1000 nM and less than 100 nM.
For the compound `C[C@H](NC(=O)c1c(N)nn2cccnc12)c1c(Br)c2cccc(F)c2c(=O)n1-c1ccccc1`, the IC50 on PIK3CG (human) lay within 100 to 1000 nM.
Take `C[C@H](NC(=O)c1cnn2cccnc12)c1cc2cccc(Cl)c2c(=O)n1-c1ccc(F)cc1`: the IC50 against PIK3CG (human) and against PIK3CD (Human) was 100 to 1000 nM throughout.
For `C[C@H](NC(=O)c1c(N)nn2cccnc12)c1cc2cccc(C#CCCNC(=O)[C@@H]3CCC(=O)O3)c2c(=O)n1-c1ccccc1`, the IC50 is not below 10000 nM against PIK3CB (Human), 100 to 1000 nM against PIK3CG (human) and less than 100 nM at PIK3CD (Human).
The compound `COc1cc(-c2cccc3nc([C@H](C)NC(=O)c4c(N)nn5cccnc45)n(C4CC4)c(=O)c23)ccn1` registered an IC50 against PIK3CD (Human) of 100 to 1000 nM.
Consider `CC(C)n1c([C@H](C)NC(=O)c2c(N)nn3cccnc23)cc2cccc(Cl)c2c1=O`, for which the half-inhibitory concentration (IC50) against PIK3CB (Human) was 100 to 1000 nM; against PIK3CG (human) it was 100 to 1000 nM; at PIK3CD (Human) it was less than 100 nM.
On to `CC(=O)Nc1ncc(-c2cccc3cc([C@H](C)NC(=O)c4c(N)nn5cccnc45)n(-c4ccccc4)c(=O)c23)s1`, for which the IC50 was not below 10000 nM at PIK3CB (Human) and 100 to 1000 nM on PIK3CG (human).
Turning to `COc1ccc(-c2cnc(N)c(C(=O)N[C@@H](C)c3cc4cccc(Cl)c4c(=O)n3-c3ccccc3)n2)cc1OC`, the IC50 against PIK3CG (human) and against PIK3CD (Human) was 100 to 1000 nM throughout.
As for `C[C@H](NC(=O)c1c(N)nn2cccnc12)c1cc2cccc(-c3ccn[nH]3)c2c(=O)n1-c1ccccc1`, the IC50 is not below 10000 nM against PIK3CB (Human), 100 to 1000 nM at PIK3CG (human) and 100 to 1000 nM against PIK3CD (Human).
On to `C[C@H](NC(=O)c1nc(-c2cccc(S(=O)(=O)NC(C)(C)C)c2)cnc1N)c1cc2cccc(Cl)c2c(=O)n1-c1ccccc1`, for which the IC50 against PIK3CG (human) is 100 to 1000 nM; against PIK3CD (Human), less than 100 nM.
For the compound `C[C@H](NC(=O)c1cncc2cccnc12)c1cc2cccc(C(F)(F)F)c2c(=O)n1-c1ccccc1`, the IC50 on PIK3CD (Human) was less than 100 nM.
On to `C[C@H](NC(=O)c1c(N)nn2cccnc12)c1cc2cccc(C#CCNS(C)(=O)=O)c2c(=O)n1-c1ccccc1`, for which the concentration for half-maximal inhibition (IC50) on PIK3CG (human) and against PIK3CD (Human) was 100 to 1000 nM in each case.
Turning to `C[C@H](NC(=O)c1c(N)nn2cccnc12)c1cc2cccc(C#CCN)c2c(=O)n1-c1ccccc1`, the IC50 at PIK3CG (human) and against PIK3CD (Human) was 100 to 1000 nM throughout.
The compound `C[C@H](NC(=O)c1cncc2cccnc12)c1cc2cccc(Cl)c2c(=O)n1-c1ccc(F)cc1` displayed an IC50 against PIK3CD (Human) of less than 100 nM.
Turning to `C[C@H](NC(=O)c1nc(-c2cccc(NS(C)(=O)=O)c2)cnc1N)c1cc2cccc(Cl)c2c(=O)n1C1CC1`, the IC50 at PIK3CB (Human) was 100 to 1000 nM; against PIK3CG (human), less than 100 nM; against PIK3CD (Human) it was less than 100 nM.
At PIK3CD (Human), `C[C@H](NC(=O)c1c(N)nn2cccnc12)c1cc2cccc(Cl)c2c(=O)n1C1CCCCC1` displayed an IC50 of less than 100 nM.
As to `CC#Cc1cccc2cc([C@H](C)NC(=O)c3c(N)nn4cccnc34)n(-c3ccccc3)c(=O)c12`, the IC50 at PIK3CG (human) and at PIK3CD (Human) was less than 100 nM each time.
Turning to `C[C@H](NC(=O)c1nc(-c2cccc(NS(=O)(=O)C3CC3)c2)cnc1N)c1cc2cccc(Cl)c2c(=O)n1-c1ccccc1`, the IC50 at PIK3CB (Human) was 100 to 1000 nM; against PIK3CG (human) it was less than 100 nM; against PIK3CD (Human), less than 100 nM.
As to `C[C@H](NC(=O)c1c(N)nn2cccnc12)c1cc2cccc(-c3cncs3)c2c(=O)n1-c1ccccc1`, the figures for the IC50 on PIK3CB (Human), on PIK3CG (human) and on PIK3CD (Human) were not below 10000 nM, 100 to 1000 nM and less than 100 nM, respectively.
The corresponding values for `CNS(=O)(=O)c1cccc(-c2cnc(N)c(C(=O)N[C@@H](C)c3cc4cccc(Cl)c4c(=O)n3-c3ccccc3)n2)c1` are 100 to 1000 nM, 100 to 1000 nM and less than 100 nM.
Regarding `C[C@H](NC(=O)c1cnn2cccnc12)c1cc2cccc(C#CCNC(=O)[C@@H]3CCC(=O)N3)c2c(=O)n1-c1ccccc1`, the IC50 against PIK3CG (human) and on PIK3CD (Human) was 100 to 1000 nM each time.
Consider `C[C@H](NC(=O)c1nc(-c2cccc(S(N)(=O)=O)c2)cnc1N)c1cc2cccc(Cl)c2c(=O)n1-c1ccccc1`, for which the IC50 against PIK3CB (Human), on PIK3CG (human) and against PIK3CD (Human) was 100 to 1000 nM each time.
`COc1ncc(-c2cccc3cc([C@H](C)NC(=O)c4c(N)nn5cccnc45)n(-c4ccccc4)c(=O)c23)cn1`: the values for the IC50 against PIK3CG (human) and at PIK3CD (Human) were 100 to 1000 nM and less than 100 nM, respectively.
In the case of `C[C@H](NC(=O)c1nc(-c2cccc(S(C)(=O)=O)c2)cnc1N)c1cc2cccc(Cl)c2c(=O)n1-c1ccccc1`, the IC50 against PIK3CG (human) and at PIK3CD (Human) was 100 to 1000 nM in each case.
Regarding `Cc1cccc2cc([C@H](C)NC(=O)c3c(N)nn4cccnc34)n(-c3ccccc3)c(=O)c12`, the values for the IC50 against PIK3CG (human) and on PIK3CD (Human) were 100 to 1000 nM and less than 100 nM, respectively.
Regarding `CC(=O)NCC#Cc1cccc2cc([C@H](C)NC(=O)c3c(N)nn4cccnc34)n(-c3ccccc3)c(=O)c12`, the IC50 against PIK3CG (human) and against PIK3CD (Human) was less than 100 nM each time.
With `C[C@H](NC(=O)c1c(N)nn2cccnc12)c1cc2cccc(C#CCCN)c2c(=O)n1-c1ccccc1`, the IC50 against PIK3CG (human) and against PIK3CD (Human) was 100 to 1000 nM in each case.
With `C[C@H](NC(=O)c1c(N)nn2cccnc12)c1cc2cccc(C#CCNC(=O)[C@H]3CCC(=O)O3)c2c(=O)n1-c1ccccc1`, the IC50 on PIK3CG (human) and against PIK3CD (Human) was less than 100 nM in each case.
For the compound `C=CC(=O)NCCC#Cc1cccc2cc([C@H](C)NC(=O)c3c(N)nn4cccnc34)n(-c3ccccc3)c(=O)c12`, the IC50 at PIK3CG (human) was 100 to 1000 nM; on PIK3CD (Human), less than 100 nM.
For `COc1cc(-c2cccc3cc([C@H](C)NC(=O)c4c(N)nn5cccnc45)n(C)c(=O)c23)ccn1`, the IC50 against PIK3CB (Human) was not below 10000 nM; against PIK3CD (Human) it was less than 100 nM.
For `COc1cc(-c2cccc3cc([C@H](C)NC(=O)c4c(N)nn5cccnc45)n(-c4ccccc4)c(=O)c23)ccn1`, the IC50 at PIK3CG (human) was 100 to 1000 nM; against PIK3CD (Human), less than 100 nM.
Take `C[C@H](NC(=O)c1nc(-c2cn[nH]c2)cnc1N)c1cc2cccc(Cl)c2c(=O)n1-c1ccccc1`: the figures for the IC50 at PIK3CG (human) and against PIK3CD (Human) were 100 to 1000 nM and less than 100 nM, respectively.

The term IC50 denotes the point on the concentration scale where inhibition reaches its midpoint. A high value points to a need for much substance.
